Patent US10799478B2, “Treatment of androgen deprivation therapy associated symptoms” (priority 2014, dated 2020)

How the values were obtained:
Orx rats = experiment: Orchidectomized Rat Assay; type: in vivo; details: for SV Weight, % Sham: once daily 2 months
healthy human volunteers = experiment: Phase Ia Study in Healthy Volunteers; type: in vivo; details: for Change from Baseline for Lean Muscle, Comparison to Placebo Difference / Change from Baseline for Lean Muscle, LS Mean: Day 28

CC(C)OC(=O)N[C@H]1Cc2c(n(Cc3ccccn3)c3ccc(C#N)cc23)C1 (single isomer, unassigned) [Example 1]
LV-TA (cm2) ± SD (Orx rats; 10 mg/Kg/d): 0.3521 ± 0.0125 ^ cm2 | LV-TBMC (mg) ± SD (Orx rats; 10 mg/Kg/d): 1.7757 ± 0.0607 mg | LV-TBMD (mg/cm3) ± SD (Orx rats; 10 mg/Kg/d): 562.843 ± 16.104 mg/cm3 | SV Weight, % Sham (Orx rats; 10 mg/Kg/d po): 6.0 % Sham | LV-TA (cm2) ± SD (Orx rats; 20 mg/Kg/d): 0.3563 ± 0.0102 ^ cm2 | LV-TBMD (mg/cm3) ± SD (Orx rats; 20 mg/Kg/d): 529.357 ± 10.052 mg/cm3 | SV Weight, % Sham (Orx rats; 20 mg/Kg/d po): 6.1 % Sham | changes from baseline in prostate-specific antigen levels compared with placebo (healthy human volunteers; any time point or any dose): no significant changes | Change from Baseline for Lean Muscle, Comparison to Placebo Difference (healthy human volunteers; females, 5 mg): 2298.22 g | Change from Baseline for Lean Muscle, LS Mean (healthy human volunteers; females, 5 mg): 1555.95 g | Change from Baseline for Lean Muscle, Comparison to Placebo Difference (healthy human volunteers; females, 15 mg): 3661.85 g | Change from Baseline for Lean Muscle, LS Mean (healthy human volunteers; females, 15 mg): 2919.58 g | Change from Baseline for Lean Muscle, Comparison to Placebo Difference (healthy human volunteers; females, 25 mg): 2224.51 g | Change from Baseline for Lean Muscle, LS Mean (healthy human volunteers; females, 25 mg): 1482.24 g | Change from Baseline for Lean Muscle, Comparison to Placebo Difference (healthy human volunteers; females, 75 mg): 2325.92 g | Change from Baseline for Lean Muscle, LS Mean (healthy human volunteers; females, 75 mg): 1583.65 g | Change from Baseline for Lean Muscle, Comparison to Placebo Difference (healthy human volunteers; males, 1 mg): 1548.97 g | Change from Baseline for Lean Muscle, LS Mean (healthy human volunteers; males, 1 mg): 675.52 g | Change from Baseline for Prostate Specific Antigen, Comparison to Placebo Difference (healthy human volunteers; males, 1 mg, day 14): -0.10 µg/L | Change from Baseline for Prostate Specific Antigen, LS Mean (healthy human volunteers; males, 1 mg, day 14): -0.06 µg/L | Change from Baseline for Prostate Specific Antigen, Comparison to Placebo Difference (healthy human volunteers; males, 1 mg, day 28): -0.09 µg/L | Change from Baseline for Prostate Specific Antigen, LS Mean (healthy human volunteers; males, 1 mg, day 28): -0.05 µg/L | Change from Baseline for Prostate Specific Antigen, Comparison to Placebo Difference (healthy human volunteers; males, 1 mg, day 35): -0.01 µg/L | Change from Baseline for Prostate Specific Antigen, LS Mean (healthy human volunteers; males, 1 mg, day 35): 0.02 µg/L | Change from Baseline for Lean Muscle, Comparison to Placebo Difference (healthy human volunteers; males, 5 mg): 1461.11 g | Change from Baseline for Lean Muscle, LS Mean (healthy human volunteers; males, 5 mg): 587.66 g | Change from Baseline for Prostate Specific Antigen, Comparison to Placebo Difference (healthy human volunteers; males, 5 mg, day 14): 0.16 µg/L | Change from Baseline for Prostate Specific Antigen, LS Mean (healthy human volunteers; males, 5 mg, day 14): 0.20 µg/L | Change from Baseline for Prostate Specific Antigen, Comparison to Placebo Difference (healthy human volunteers; males, 5 mg, day 28): -0.05 µg/L | Change from Baseline for Prostate Specific Antigen, LS Mean (healthy human volunteers; males, 5 mg, day 28): -0.00 µg/L | Change from Baseline for Prostate Specific Antigen, Comparison to Placebo Difference (healthy human volunteers; males, 5 mg, day 35): 0.17 µg/L | Change from Baseline for Prostate Specific Antigen, LS Mean (healthy human volunteers; males, 5 mg, day 35): 0.20 µg/L | Change from Baseline for Lean Muscle, Comparison to Placebo Difference (healthy human volunteers; males, 15 mg): 3202.54 g | Change from Baseline for Lean Muscle, LS Mean (healthy human volunteers; males, 15 mg): 2329.08 g | Change from Baseline for Prostate Specific Antigen, Comparison to Placebo Difference (healthy human volunteers; males, 15 mg, day 14): -0.16 µg/L | Change from Baseline for Prostate Specific Antigen, LS Mean (healthy human volunteers; males, 15 mg, day 14): -0.11 µg/L | Change from Baseline for Prostate Specific Antigen, Comparison to Placebo Difference (healthy human volunteers; males, 15 mg, day 28): -0.31 µg/L | Change from Baseline for Prostate Specific Antigen, LS Mean (healthy human volunteers; males, 15 mg, day 28): -0.27 µg/L | Change from Baseline for Prostate Specific Antigen, Comparison to Placebo Difference (healthy human volunteers; males, 15 mg, day 35): 0.22 µg/L | Change from Baseline for Prostate Specific Antigen, LS Mean (healthy human volunteers; males, 15 mg, day 35): 0.25 µg/L | Change from Baseline for Lean Muscle, Comparison to Placebo Difference (healthy human volunteers; males, 25 mg): 1829.63 g | Change from Baseline for Lean Muscle, LS Mean (healthy human volunteers; males, 25 mg): 956.18 g | Change from Baseline for Prostate Specific Antigen, Comparison to Placebo Difference (healthy human volunteers; males, 25 mg, day 14): -0.19 µg/L | Change from Baseline for Prostate Specific Antigen, LS Mean (healthy human volunteers; males, 25 mg, day 14): -0.15 µg/L | Change from Baseline for Prostate Specific Antigen, Comparison to Placebo Difference (healthy human volunteers; males, 25 mg, day 28): -0.27 µg/L | Change from Baseline for Prostate Specific Antigen, LS Mean (healthy human volunteers; males, 25 mg, day 28): -0.22 µg/L | Change from Baseline for Prostate Specific Antigen, Comparison to Placebo Difference (healthy human volunteers; males, 25 mg, day 35): -0.17 µg/L | Change from Baseline for Prostate Specific Antigen, LS Mean (healthy human volunteers; males, 25 mg, day 35): -0.14 µg/L | Change from Baseline for Lean Muscle, Comparison to Placebo Difference (healthy human volunteers; males, 75 mg): -683.76 g | Change from Baseline for Lean Muscle, LS Mean (healthy human volunteers; males, 75 mg): -1557.21 g | Change from Baseline for Prostate Specific Antigen, Comparison to Placebo Difference (healthy human volunteers; males, 75 mg, day 14): -0.17 µg/L | Change from Baseline for Prostate Specific Antigen, LS Mean (healthy human volunteers; males, 75 mg, day 14): -0.13 µg/L | Change from Baseline for Prostate Specific Antigen, Comparison to Placebo Difference (healthy human volunteers; males, 75 mg, day 28): 0.03 µg/L | Change from Baseline for Prostate Specific Antigen, LS Mean (healthy human volunteers; males, 75 mg, day 28): 0.07 µg/L | Change from Baseline for Prostate Specific Antigen, Comparison to Placebo Difference (healthy human volunteers; males, 75 mg, day 35): 0.00 µg/L | Change from Baseline for Prostate Specific Antigen, LS Mean (healthy human volunteers; males, 75 mg, day 35): 0.03 µg/L
